One test deals with T1, NLRP3 inflammasome (Homo sapiens, UniProt Q96P20).
T1 construct: endogenous in cells; host or cells: THP-1 monocytic cells
Put plainly: IL-1β secretion assay (NLRP3 IC50) in LPS-primed, nigericin-activated THP-1 cells, HTRF. The class given is cell-based. The note with it: monocytic THP-1 cells; LPS 10 ng/mL 3 h priming, then compound + nigericin 10 μM 2 h; relative IC50, 10 concentrations, geometric mean. Summed up:
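THP-1 cells primed with LPS 10 ng/mL for 3 h at 37° C., then compound (10-point 1:3 dilution, 0.1% DMSO) added with 10 μM nigericin for 2 h. Supernatant IL-1β measured by HTRF; relative IC50 from a 4-parameter logistic fit, reported as geometric mean.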
(TR-FRET usually uses a lanthanide donor and a delayed reading to cut background.)

The test system of test [1] is NF-kB pathway (TNF-α secretion by THP-1 cells). As to the kind of experiment: TNF-α secretion assay in LPS-stimulated THP-1 cells, Lumit immunoassay. The class given is cell-based, human. The note with it: Homo sapiens, THP-1, 3 h, monocytic THP-1 cells, LPS 10 ng/mL, relative IC50, 10 concentrations, geometric mean. Summed up: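 THP-1 monocytes in RPMI with 5% FBS were treated with compound, then stimulated with 10 ng/mL LPS for 3 h. Secreted TNF-α was measured in-plate by Lumit immunoassay. Relative IC50 came from 10-concentration curves fitted with a 4-parameter logistic model, reported as geometric mean.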

As a reminder, the IC50 is the concentration that inhibits the measured activity by half.

T1 sequence (Q96P20 whole entry): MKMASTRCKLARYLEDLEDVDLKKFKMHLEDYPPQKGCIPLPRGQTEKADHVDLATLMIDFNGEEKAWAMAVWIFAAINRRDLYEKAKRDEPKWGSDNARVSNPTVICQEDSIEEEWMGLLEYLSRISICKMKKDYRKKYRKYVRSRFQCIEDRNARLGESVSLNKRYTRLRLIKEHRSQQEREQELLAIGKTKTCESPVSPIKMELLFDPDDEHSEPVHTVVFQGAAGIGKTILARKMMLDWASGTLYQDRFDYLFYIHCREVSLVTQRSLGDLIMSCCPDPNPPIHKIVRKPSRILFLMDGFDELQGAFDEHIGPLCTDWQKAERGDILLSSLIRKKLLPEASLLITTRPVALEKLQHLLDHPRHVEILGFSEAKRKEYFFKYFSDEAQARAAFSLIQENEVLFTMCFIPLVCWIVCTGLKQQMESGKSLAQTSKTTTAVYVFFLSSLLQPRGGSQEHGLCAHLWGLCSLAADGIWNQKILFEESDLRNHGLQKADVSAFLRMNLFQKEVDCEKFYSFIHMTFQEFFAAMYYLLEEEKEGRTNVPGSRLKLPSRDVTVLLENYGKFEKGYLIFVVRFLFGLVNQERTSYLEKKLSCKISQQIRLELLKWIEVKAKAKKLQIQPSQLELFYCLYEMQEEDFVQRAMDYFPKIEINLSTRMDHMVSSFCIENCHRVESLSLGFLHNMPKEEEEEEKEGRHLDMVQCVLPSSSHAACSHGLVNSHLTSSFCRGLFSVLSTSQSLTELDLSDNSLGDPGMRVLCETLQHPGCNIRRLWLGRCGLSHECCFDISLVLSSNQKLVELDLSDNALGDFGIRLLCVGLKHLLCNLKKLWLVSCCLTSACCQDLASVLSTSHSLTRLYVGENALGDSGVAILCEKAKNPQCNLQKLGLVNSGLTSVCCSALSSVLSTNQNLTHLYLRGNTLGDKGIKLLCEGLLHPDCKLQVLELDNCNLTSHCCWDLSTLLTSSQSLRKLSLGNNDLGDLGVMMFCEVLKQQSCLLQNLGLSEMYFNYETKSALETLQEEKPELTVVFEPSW

As for `CCN1CC[C@H]2OCCN(c3cc(C)c(-c4ccc(C(F)(F)F)cc4O)nn3)[C@H]2C1` [Example 436, 2-[6-[(4aS,8aR)-6-ethyl-3,4a,5,7,8,8a-hexahydro-2H-pyrido[4,3-b][1,4]oxazin-4-yl]-4-methyl-pyridazin-3-yl]-5-(trifluoromethyl)phenol], the IC50 at NLRP3 inflammasome was 2 nM; in test [1], greater than 10000 nM.
As to `CCN1CC[C@H]2OCCN(c3cc(C)c(-c4ccc(Cl)cc4O)nn3)[C@H]2C1` [Example 437, 2-[6-[(4aS,8aR)-6-ethyl-3,4a,5,7,8,8a-hexahydro-2H-pyrido[4,3-b][1,4]oxazin-4-yl]-4-methyl-pyridazin-3-yl]-5-chloro-phenol], the IC50 on NLRP3 inflammasome is 1 nM; in test [1], greater than 10000 nM.
The corresponding values for `CCc1cc(N2CCO[C@@H]3CCN(C)C[C@@H]32)nnc1-c1ccc(C(F)(F)F)cc1O` [Example 443, 2-[6-[(4aS,8aR)-6-methyl-3,4a,5,7,8,8a-hexahydro-2H-pyrido[4,3-b][1,4]oxazin-4-yl]-4-ethyl-pyridazin-3-yl]-5-(trifluoromethyl)phenol] are 10 nM and greater than 10000 nM.

Source of the values: patent US20240360151A1 (SANOFI, priority 2023, published 2024).
